{
  "source": "patent US20220226321A1",
  "about": "“INHIBITOR OF MNK FOR THE TREATMENT OF NEUROPATHIC PAIN” (Board of Regents, The University of Texas System, priority 2019, published 2022)",
  "key": {"DRG": {"system": "DRG", "experiment": "Western blot (immunoblot) of DRG tissue after paclitaxel or eFT508 in vivo", "design": "species or system mouse", "conditions": "Veh=100"}, "DRG neurons": {"system": "DRG neurons", "experiment": "whole-cell patch recording of acutely dissociated DRG neurons", "assay_type": "cell-based, mouse", "experimental": "Acute dissociation of mouse DRG neurons. Thirty mice were deeply anesthetized with isoflurane and the bilateral C4-5, T3-5, and L4-5 ganglia were surgically exposed and removed. The ganglia were placed in a flask containing trypsin (6.25 μg/mL, Hyclone) and type IA collagenase (0.25 mg/mL, Sigma-Aldrich) in DMEM and shaken for 50 min in a heated (37° C.) bath. After the cells were washed and mechanically dispersed with a fire polished Pasteur pipette, they were plated on poly-L-lysine-coated glass sheets and held in culture dishes with DMEM (10% FBS) until use within 6 hours after plating.\nWhole-cell patch recording of spontaneous and evoked action potential in acutely dissociated mice DRG neurons. A previously described protocol was used (Li et al., 2017) for current-clamp recording. The internal solution contained 135 mM K-gluconate, 5 mM KCl, 5 mM Mg-ATP, 0.5 mM Na2GTP, 5 mM HEPES, 2 mM MgCl2, 5 mM EGTA, and 0.5 mM CaCl2 adjusted to pH 7.4 with KOH and the bath ACSF solution. DRG neurons were held at 0 pA, and the action potential current threshold was evoked using a series of 300-ms depolarizing current injections in 10-pA steps from −50 pA. The current that induced the first action potential that was defined as 1× rheobase. Only neurons with a resting membrane potential of at least −40 mV, stable baseline recordings, and evoked spikes that overshot 0 mV were used for further experiments and analysis. The DRG neurons were then held at 0 pA to record spontaneous action potential for 5 min. The different times rheobase injections for 500 ms was applied to induce action potential spike-burst responses. Series resistance (Rs) was compensated to above 70% for the recorded DRG neurons. All recordings were made at room temperature."}, "infralimbic cortex": {"system": "infralimbic cortex", "experiment": "axon initial segment (AIS) length in infralimbic cortex, immunohistochemistry", "assay_type": "in vivo, mouse", "conditions": "10 mg/kg p.o. daily for 7 days, male SNI mice", "experimental": "Immunohistochemistry. All mice were perfused at 3 weeks post-surgery (the day after rule-shifting). Mice were deeply anesthetized with a mixture of ketamine (80 mg/kg) and xylazine (12 mg/kg; i.p.) and then transcardially perfused with 1× phosphate buffered saline (PBS; 4° C., pH 7.4) followed by 10% formalin in 0.1 M phosphate buffer (PB; 4° C., pH 7.4; 25 mL at a flow rate of […]) using a perfusion pump. Brains were dissected and transferred […] to a 30% sucrose in 0.1M PB. Once the brains sunk in sucrose, they were frozen in OCT over dry ice. Coronal sections (30 μm) were cut using a cryostat and a hole was placed in the left hemisphere to demarcate the left (ipsilateral) hemisphere. Free floating sections were then washed in 0.1M PB, and then incubated in blocking solution (10% Normal Goat Serum, 0.3% Triton-X 100 in 0.1M PB) for 1 hr at room temperature with gentle rocking/agitation. Sections were incubated in primary antibody (mouse-anti-AnkyrinG; UC Davis/NIH NeuroMab Facility, clone N106/36 RRID:AB_10673030; 2 μg/ml working concentration) diluted in blocking solution for 3 hrs at room temperature. […]\nImage Analysis. […] For each image, 30 segments were analyzed in layers 2/3 and layers 5/6 of the ipsilateral and contralateral IL in CellSens (Olympus) using the polyline measure tool. […]"}, "SNI mice": {"system": "SNI mice", "experiment": "conditioned place preference (CPP) after SNI", "assay_type": "in vivo, mouse", "conditions": "WT SNI, 10 mg/kg i.p., single conditioning day", "experimental": "Conditioned Place Preference. A previously published CPP protocol from the Walters laboratory protocol was used (Yang et al., 2014). The CPP box consisted of one black and one white chamber connected by a striped chamber. CPP was conducted in a dark room with a single low lumens light source (Maia 69E120-WH). The middle chamber of the CPP box was brightly illuminated to discourage mice from spending time in the middle chamber. […] On day 1 of testing (preconditioning), each mouse was permitted to explore the middle and black (but not white) chambers for 30 minutes. […] On the last day of CPP, each mouse was placed in the middle chamber with unrestricted access to all chambers and video-recorded for 10 min. Data are presented as the percent change in time spent in the drug-paired chambered compared to the control (vehicle or sham for each genotype or surgery). This was calculated by dividing each animal's time spent in the white box by the control average, multiplying by 100 and then subtracting 100.\nSurgery. Spared nerve injury (SNI) was performed by the ligation and cutting of the tibial and peroneal branches of the left sciatic nerve trifurcation, leaving the sural branch intact as previously described (Decosterd and Woolf, 2000). Sham surgeries were performed the same way but without cutting the nerve. Mice were allowed to recover for 2 weeks following surgery."}, "[1]": {"system": "eIF4E phosphorylation at serine 209", "conditions": "in vitro, tumor cell lines; read-out: IC50, reduction of eIF4E phosphorylation at serine 209; cited from earlier work"}, "mice": {"system": "mice", "experiment": "marble burying task", "assay_type": "in vivo, mouse", "conditions": "10 mg/kg p.o. daily for 7 days, vs WT naïve", "experimental": "Marble burying task. The marble burying task was used to assess obsessive compulsive disorder (OCD)-like behaviors as previously described^28. Nineteen marbles were placed on top of 5 cm of standard bedding in a clean cage. A mouse was placed into the cage for 30 minutes and then the number of buried marbles was counted."}, "[2]": {"conditions": "DRG, day 10 after induction of CIPN"}, "[3]": {"conditions": "DRGs in vivo after eFT508 treatment"}},
  "note": "Entries after “also recorded” stand apart in the source; their conditions may differ.",
  "data": [
    {"compound": "CC(=O)O[C@H]1C(=O)[C@@]2(C)[C@H]([C@H](OC(=O)c3ccccc3)[C@]3(O)C[C@H](OC(=O)[C@H](O)[C@@H](NC(=O)c4ccccc4)c4ccccc4)C(C)=C1C3(C)C)[C@]1(OC(C)=O)CO[C@@H]1C[C@@H]2O", "note": "[paclitaxel]", "values": [
      {"measurement": "Esyt1 protein, immunoblot", "setting": "DRG; DRG after CIPN induction", "value": "230±18.30"},
      {"measurement": "mTOR, immunoblot", "setting": "DRG; DRG after paclitaxel treatment", "value": "195±25.27"},
      {"measurement": "p-4EBP1, immunoblot", "setting": "DRG; DRG after paclitaxel treatment", "value": "152±11.27"},
      {"measurement": "p-eIF4E, immunoblot", "setting": "DRG; DRG after paclitaxel treatment", "value": "158±10.57"},
      {"measurement": "p-mTOR, immunoblot", "setting": "DRG; DRG after paclitaxel treatment", "value": "131±20.27"},
      {"measurement": "RagA protein level, immunoblot", "setting": "DRG; DRG of eIF4E^S209A mice, paclitaxel vs vehicle", "value": "75±8.46"},
      {"measurement": "S6, immunoblot", "setting": "DRG; [2]", "value": "133±24.54"},
      {"measurement": "p-Akt, immunoblot", "setting": "DRG; [2]", "value": "96.86±6.63"},
      {"measurement": "p-ERK1/2, immunoblot", "setting": "DRG; [2]", "value": "107±14.94"},
      {"measurement": "p-S6, immunoblot", "setting": "DRG; [2]", "value": "134±24.47"},
      {"measurement": "RagA protein level, immunoblot", "setting": "DRG; DRGs after CIPN", "value": "181±15.35"},
      {"measurement": "spontaneous activity and nociceptor excitability", "setting": "DRG neurons; cervical, thoracic and lumbar DRGs, day 10, paclitaxel 4 mg/kg every other day i.p.", "value": "caused spontaneous activity and increased nociceptor excitability"}
    ]},
    {"compound": "Cc1cc(Nc2cc(N)ncn2)c(=O)n2c1C(=O)NC21CCCCC1", "note": "[eFT508, Tomivosertib]", "values": [
      {"measurement": "RagA, immunoblot", "setting": "DRG; [3]", "value": "67±6.02"},
      {"measurement": "p4EBP1, immunoblot", "setting": "DRG; [3]", "value": "53.12±7.03"},
      {"measurement": "p-eIF4E, immunoblot", "setting": "DRG; [3]", "value": "10±2.43"},
      {"measurement": "SNI-induced changes in AIS length", "setting": "infralimbic cortex", "value": "reversed"},
      {"measurement": "more time in the drug-paired (white) chamber vs SNI animals that received vehicle", "setting": "SNI mice", "value": "~40", "unit": "%"},
      {"measurement": "IC50", "setting": "[1]", "value": "2 to 16", "unit": "nM"},
      {"measurement": "marble burying", "setting": "mice", "value": "no differences in marble burying; also recorded: performed similarly to naïve and vehicle-controls"},
      {"measurement": "spontaneous activity in DRG neurons from paclitaxel treated mice", "setting": "DRG neurons", "value": "strongly suppressed; also recorded: decreases spontaneous activity"},
      {"measurement": "toxicity to DRG neurons in vitro", "setting": "DRG neurons", "value": "not toxic"},
      {"measurement": "treatment time needed to reduce spontaneous activity in most neurons", "setting": "DRG neurons; DRG neurons from paclitaxel treated mice", "value": "Approximately 20 min"}
    ]}
  ]
}
